For experiment [1], the system named is mosquitoes. In words: Limonene tested against mosquitoes (background). Type of experiment: in vivo. The settings on record: background statement.
Experiment [2] has as its system mosquitoes and biting midges. The settings on record: related art; cited from earlier work.
Experiment [3] concerns female mosquitoes (Aedes aegypti). Put plainly: Mosquitoes feeding test (Plexiglas module, treated membrane over dyed sucrose/ATP solution). The experiment is classed as in vivo. The settings on record: feeding relative to control, FIGS. 1 and 3. How it is done: (§1) The test was conducted at 0900-2100 hours in a walk-in incubator (26° C., 63-80% RH) illuminated by fluorescent lights. Mosquitoes were tested in a two-piece Plexiglas module designed to assess their response to feeding deterrents. The bottom piece of the module was 40×7×4-cm hollow platform supporting six circular wells (diameter=3.8 cm, depth=6 mm). Water (40° C.) flowed through the central cavity of the platform at a rate of 215 ml/min. The top piece of the module consisted of six 4.5×4.0×5.0 cm chambers, the floors of which were fitted with a sliding door positioned over a circular opening 3.5 cm in diameter. Mosquitoes were introduced through an aperture 1 cm in diameter on the front wall of the chambers. For each test, five female mosquitoes (Aedes aegypti) were aspirated into each of five chambers of the top module piece and the apertures were plugged with corks wrapped in plastic film. The wells on the bottom piece of the module were filled with 7 ml of 10% sucrose solution containing ATP (2.9 mg/ml). To each well, 75 μl of green dye (McCormick Food, Hunt Valley, Md.) were added so that those mosquitoes imbibing the sugar solution could be identified when crushed at the end of the tests. Each membrane received 50 ul of acetone or experimental compound solution, applied to 9.6 cm^2 circular area on 0.1 mm-thick membranes made of nylon mesh in a silicone matrix. The membranes were then placed over each well in contact with the sugar solution.
(§2) The circular openings on the floor of each chamber of the top piece of the module were aligned with each membrane-covered well of the bottom piece. The sliding floors of the chambers were then opened allowing mosquitoes access to the membranes. The number of mosquitoes landing on the membranes, and those flying within the apparatus, were recorded each minute for five minutes. After five minutes, any mosquitoes remaining on the membranes were removed with a metal wire, and the door of the floor of each chamber was closed. The top piece of the module was then placed into a freezer for 20 minutes. In the test designed to assess feeding, mosquitoes were removed from the frozen module, crushed on white paper towels, and examined for the presence of green dye to indicate that feeding had occurred. The proportions of mosquitoes feeding per trial were analyzed using a standard generalized linear model with a logit link. Landing and flying scores are repeated measures; five reading were obtained for groups of five mosquitoes. Thus, to maintain independence among the data, the five readings were summed, and then the sums divided by 25 (the maximum score in each category) to create proportions of mosquitoes landing and flying. The proportions were then transferred using the standard variance stabilizing transformation for proportions (sin^−1 √y, where y is the proportion), and analyzed using ANOVA (Analysis of Variables)
In Table 1, weight percent (wt %) refers to the weight of the deterring/repelling/inhibiting compound, or combination of compounds, in the composition used in the tests. […] The weight ratio of the compounds in the combination of compounds is given in parentheses in the “Compound(s)” column of Table 1.

Experiment [4] has the same test system. Put plainly: Mosquitoes flying test (Plexiglas module, mosquitoes flying within the apparatus). The note with it: flying relative to control, FIGS. 2 and 4. Type of experiment: in vivo. Here is the method: as §1, §2
In Table 2, weight percent (wt %) refers to the weight of the deterring/repelling/inhibiting compound, or combination of compounds, in the composition used in the tests. […] The weight ratio of the compounds in the combination of compounds is given in parentheses in the “Compound(s)” column of Table 2.

The test system of experiment [5] is mosquitoes. In words: Spatial inhibition of mosquitoes, outdoor Mosquito Magnet Liberty Plus trap catch. The experiment is classed as in vivo. The settings on record: two grams of test compound on absorbent material in CO2 and r-octenol stream of trap; 2-5 days; FIG. 5. How it is done:
Two grams of test compound was absorbed onto pieces of absorbent material. These pieces of absorbent material (fragrance release material from Rhopore Inc.) containing absorbed test compound were then placed in a stream of CO2 and r-octenol being released from an American Biophysics Mosquito Magnet Liberty Plus mosquito trap designed to attract mosquitoes. The test were rotated over a period of 2-5 days in such a manner that both control (trap without test compound) and test compound were tested an equal number of times in each trap employed. The number of mosquitoes caught in the traps with test compounds was compared to the number of mosquitoes caught in the trap with no test compound material present. […] Thus, a lowered percentage is indicative of the increasing ability of the test compounds to inhibit the ability of the mosquitoes sense the target. […] In Table 3, weight percent (wt %) refers to the weight of the deterring/repelling/inhibiting compound, or combination of compounds, in the composition used in the tests. In the “Percent Caught Relative to Control” column in Table 3, a lower percentage is indicative of the increasing ability of the test compounds to inhibit the ability of the mosquitoes sense the target. The weight ratio of the compounds in the combination of compounds is given in parentheses in the “Compound(s)” column of Table 3.

Consider `C=C(C)C1CC=C(C)CC1` (stereo not drawn) [limonene], for which the “repellent or spatial inhibitor efficacy against mosquitoes, in words” value with mosquitoes [1] was “not found to be either an effective repellent or spatial inhibitor”.

As for `C=CC(C)(O)CCC=C(C)C` (stereo not drawn) [linalool], in experiment [2], the “spatial inhibitor efficacy, in words” value is “act as spatial inhibitors”.

Turning to (+)/(−) limonene oxide, the “contact mosquito repellent activity (feeding tests, FIGS. 1 and 3), in words” value in experiment [3] is “especially effective as contact mosquito repellents”. Moreover, in experiment [4], the “spatial inhibitor activity for mosquitoes (flying tests, FIGS. 2 and 4), in words” value is on record as “particularly effective as spatial inhibitors for mosquitoes”.

On to cis and trans carveol, for which the “contact mosquito repellent activity (feeding tests, FIGS. 1 and 3), in words” value in experiment [3] is “especially effective as contact mosquito repellents”. Moreover, the “percent mosquitoes caught relative to the control (relative catch)” value with mosquitoes [5] is given as “about 43%”.

Source of the values: patent US20210029993A1, “SPATIAL INHIBITORS, DETERRENTS AND REPELLENTS FOR MOSQUITOES AND MIDGES” (BEDOUKIAN RESEARCH, INC., priority 2005, published 2021).
